For experiment [1], the target named is T1, Krueppel-like factor 10 (Homo sapiens) (UniProt Q13118).
T1 sequence (whole entry): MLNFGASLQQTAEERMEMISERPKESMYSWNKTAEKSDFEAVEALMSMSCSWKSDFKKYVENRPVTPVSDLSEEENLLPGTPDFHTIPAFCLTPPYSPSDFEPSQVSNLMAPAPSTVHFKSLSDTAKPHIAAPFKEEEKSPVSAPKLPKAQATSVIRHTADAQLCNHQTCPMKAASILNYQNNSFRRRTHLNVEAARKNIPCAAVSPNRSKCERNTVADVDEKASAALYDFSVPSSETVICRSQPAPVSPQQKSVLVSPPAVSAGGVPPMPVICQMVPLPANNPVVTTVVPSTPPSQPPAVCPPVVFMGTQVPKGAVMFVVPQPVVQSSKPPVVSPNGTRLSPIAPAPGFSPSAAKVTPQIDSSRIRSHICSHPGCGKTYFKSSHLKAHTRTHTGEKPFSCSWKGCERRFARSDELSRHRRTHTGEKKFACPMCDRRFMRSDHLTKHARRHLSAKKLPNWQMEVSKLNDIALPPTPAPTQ
The experiment in a line: Inhibition of KLF10 (unknown origin) binding to DNA at 40 uM incubated for 4 hrs followed by biotin-labeled probes addition and incubated for another 1 hr by electromobility gel shift assay.

In experiment [2] the target is Krueppel-like factor 1 (Homo sapiens) (UniProt Q13351). In words: Inhibition of KLF1 (unknown origin) binding to DNA at 8 uM incubated for 4 hrs followed by biotin-labeled probes addition and incubated for another 1 hr by electromobility gel shift assay. (In EMSA bound probe runs differently from free probe, usually more slowly.)
For experiment [3] the target is unchanged. The experiment in a line: Inhibition of KLF1 (unknown origin) binding to DNA at 40 uM incubated for 4 hrs followed by biotin-labeled probes addition and incubated for another 1 hr by electromobility gel shift assay.
The target in experiment [4] is T1, Krueppel-like factor 10 (Homo sapiens). The experiment in a line: Inhibition of KLF10 (unknown origin) binding to DNA at 8 uM incubated for 4 hrs followed by biotin-labeled probes addition and incubated for another 1 hr by electromobility gel shift assay.
The subject of experiment [5] is T-cell. In words: Inhibition of Foxp3 gene expression in mouse T regulatory cells at 50 uM measured during TGFbeta1-induced conversion of CD4(+) and CD25(-) cells to CD4(+) and CD25(+) cells incubated for 3 days by real-time quantitative PCR method. The experiment is classed as functional. The conditions noted are these: 72 h.
The target of the next experiment is T2, Krueppel-like factor 10 (Homo sapiens, UniProt Q13118).
T2 sequence (Q13118 whole entry): T1 sequence (whole entry)
In words: Inhibition of human KLF10 expressed in human HeLa cells assessed as reduction in transcriptional activity after 24 hrs by CACCC-responsive promoter driven TK-luciferase reporter gene assay. The format is cell-based.

For experiment [6], the system named is T-cell. The experiment in a line: Inhibition of mouse T regulatory cell differentiation assessed as inhibition of TGFbeta1-induced conversion of CD4(+) and CD25(-) cells to CD4(+) and CD25(+) cells incubated for 3 days by flow cytometry. The experiment is classed as functional. For orientation: In flow cytometry, cells or beads pass a laser one at a time.
In the next experiment the test system is HEK293. The experiment in a line: Inhibition of GLI (unknown origin) expressed in HEK293 cells assessed as reduction in GLI-mediated transcription at 30 uM. The experiment is classed as cell-based. The settings on record: Homo sapiens.
Experiment [7] in a line: Inhibition of zinc finger protein C7 (unknown origin) assessed as reduction in transcriptional activity by luciferase reporter gene assay relative to untreated control. Set-up: species or system Homo sapiens. On the technique in general: Reporter assays use an easily measured gene product as a stand-in for the process of interest.

Each structure is given as a SMILES string. Activity calls are given as the source filed them. The calls are words filed in the database; no cut-off is given here.

Chain of Krueppel-like factor 1 (Homo sapiens) (Q13351 whole entry): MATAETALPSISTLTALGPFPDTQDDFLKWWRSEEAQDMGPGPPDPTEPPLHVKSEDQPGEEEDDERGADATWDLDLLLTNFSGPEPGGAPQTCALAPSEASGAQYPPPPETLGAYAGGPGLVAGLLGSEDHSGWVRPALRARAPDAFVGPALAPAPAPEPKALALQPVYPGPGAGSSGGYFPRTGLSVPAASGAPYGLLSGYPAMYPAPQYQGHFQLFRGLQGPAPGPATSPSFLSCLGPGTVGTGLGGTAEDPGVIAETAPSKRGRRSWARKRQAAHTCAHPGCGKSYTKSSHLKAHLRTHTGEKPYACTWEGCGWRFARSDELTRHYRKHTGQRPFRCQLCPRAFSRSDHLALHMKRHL

The term inhibition denotes the relative decrease from the control value, in per cent. In general, IC50 refers to the concentration that inhibits the measured activity by half. On to `COc1ccc(C(=O)COC(=O)c2cc(C)ccc2O)cc1`, for which the inhibition in experiment [1] is 45%; in experiment [4], 12%. Further, the inhibition entry in experiment [2] and in experiment [3] was “inactive” each time. In addition, the inhibition at 50 µM in the experiment with T-cell [5] amounted to 82.5%. Moreover, the IC50 at Krueppel-like factor 10 was 40 µM. Also, the “inhibition (INH)” value with T-cell [6] is on record as 59.1%.

With `Cc1sc2nc(SCC(=O)c3ccc(O)c(O)c3)[nH]c(=O)c2c1C`, the inhibition in experiment [4] was 25%. Also, at 50 µM the inhibition in the experiment on T-cell [5] was 90.8%. In the experiment with T-cell [6], the “inhibition (INH)” value turned out to be 29.2%.

With `c1cc(-c2sc(-c3ccncc3)c(-c3ccncc3)c2-c2ccncc2)ccn1`, the inhibition result in the experiment on HEK293 is “Active”.

The term EC50 denotes the midpoint of the concentration-response curve. Turning to `c1ccc2[nH]c(-c3ccnc4ccccc34)nc2c1`, the EC50 in experiment [7] is 35 µM.

As to `Cc1ccc(OCC(=O)c2cc(C)c(O)cc2O)cc1`, the inhibition worked out at 25% in experiment [1] and 11% in [4]. For the same compound, the inhibition result in [2] and in [3] was “inactive” in each case. The inhibition at 50 µM with T-cell [5] stood at 84.7%.

Turning to `CN(C)c1ccccc1CN1CCCN(Cc2ccccc2N(C)C)C1c1ccncc1`, in the experiment with HEK293, the inhibition entry is “Active”.

(Values after ChEMBL document CHEMBL3407497, “Discovery of small molecule inhibitors to Krüppel-like factor 10 (KLF10): implications for modulation of T regulatory cell differentiation” (J Med Chem, 2015).)
